Measurements from patent publication US20140088006A1, “Stem Cell Mobilization and Tissue Repair and Regeneration” (Wellstat Therapeutics Corporation, priority 2011, published 2014).
“And” between values parts separate entries of the source, which are not always exact repeats. Equal values may be shown once. No end group written: not given here.

Key:
[1] = tested on: full-thickness cutaneous wounds; assay: Excisional wound healing model in db/db mice; type: in vivo; details: i.v. 5 mg/kg daily for 4 days, Day 4
[2] = Blood glucose before and 7 weeks after treatment in wound healing study; type: in vivo, db/db mice; details: 4 days i.v. treatment course; 7 weeks after the treatment
Description: Note, that mice were taken for the wound healing experiment when their glucose level was high; baseline glucose was measured by glucometer from tail bleed one day before the wound healing experiment next glucose measurement was taken at the end of the study, 7 weeks after the treatment with intravenous injections of Compound X or Saline.

[3] = tested on: CFU-GEMM / CFU-GM colony-forming cells; assay: CFU colony assay of peripheral blood on day 7 after 5 daily subcutaneous injections; type: in vivo, DBA/2J male mice
Description: Mobilization of hematopoietic stem and progenitor cells from bone marrow into peripheral blood is important for tissue regeneration. However, this physiological mechanism is often insufficient, including in elderly patients and people with diabetes. In order to look at the ability of Compound X mobilized stem cells to mediate tissue regeneration, multiple in vivo injections of Compound X were administered. A group of DBA/2J male mice were injected subcutaneously for 5 consecutive days with 250 ug/kg Compound X in Saline. Another group of mice received injections of vehicle only. Peripheral blood from 3 mice from each of these groups was then harvested from the orbital plexus at 7 days post initial injection. Blood was also harvested and pooled from 3 naïve mice to serve as an additional control group. To determine mobilization of pluripotent colony-forming cells from bone marrow into peripheral blood, mononuclear cells obtained from blood were plated into MethoCult 3434 media (Stem Cell Technologies 03434). Briefly, peripheral blood from three mice was pooled, diluted (1:1, v/v) with 0.9% saline (APP Pharmaceutical) and layered (2:1, v/v) onto 1-Step™1.077 A (Accurate Chemicals AN224510) in 15-ml centrifuge tubes. Cells were centrifuged at 600×g for 20 min at room temperature. The mononuclear cells were harvested from the interface between the plasma layer and the 1-Step™ A solution using a 1-ml syringe and 16G blunt-end needle (Stem Cell Technologies 28120). The cells were transferred to 15-ml centrifuge tubes and washed twice in 1×PBS. The cells were placed into 35-mm Petri dishes at 100,000 cells per dish with 5 dishes per group. Cells incubated for 10 days in a 37° C. and 5% CO2 humidified incubator. CFU-GM colonies consisting of granulocytic and monocytic cells and CFU-GEMM colonies representing mixed cell populations of granulocytes, macrophages and erythroid cells were then scored using an inverted microscope. Blood was taken at Zeitgeber Time 4 (ZT4) which corresponded to the physiological time of cell emigration from bone marrow—the circadian stem cell mobilization peak.

HSC and HPC = assay: CFU-GM / CFU-GEMM colony assay after 4 daily injections of G-CSF and Compound X; type: in vivo, mice; details: for CFU-GEMM numbers, MEAN / CFU-GM numbers, MEAN / CFU-GEMM numbers / CFU-GM numbers: 5 μg/mouse each agent s.c. daily for 4 days; for CFU-GEMM numbers / CFU-GM numbers: individual dishes; for Fold increase in number of CFU-GM / Fold increase in number of CFU-Mix (CFU-GEMM): multiple injections, 5 μg/mouse each agent
Description: Compound X and Neupogen (rG-CSF Amgen, lot# P043601) were diluted in PBS. Mice received subcutaneous injections of PBS, Compound X (5 μg/mouse), G-CSF (5 μg/mouse) or Compound X (5 μg/mouse)+G-CSF (5 μg/mouse) for four consecutive days. […] Mononuclear cells were isolated by density gradient separation from pooled blood. […] Blood was also collected and processed on day 8 for colony assay. Results are shown in Tables 10, 11, and 12 and in FIG. 5.

[4] = Glucose level in db/db mice treated for 5 weeks; type: in vivo; details: for Glucose level in peripheral blood (nonfasting): 5 mg/kg s.c./i.v. for 5 weeks, individual mice; for Glucose level in peripheral blood, group mean: 5 mg/kg, high values set to 600 mg/dL
Description: Homozygous Leptin receptor-deficient diabetic db/db male mice—BKS.Cg-Dock7m+/+Leprdb/J (Jackson Laboratories, stock #000642) become obese at 3-4 weeks of age. Elevation of plasma insulin usually occurs at 10-14 days and elevation of blood glucose at 6-8 weeks of age. We examined the effects of Compound X on the onset of hyperglycemia in db/db mice. Continuous Compound X treatments were performed during 5 weeks.
At day 0, homozygous 7-week-old female db/db mice were divided into 2 experimental groups (n=10); both groups received subcutaneous injections for 5 consecutive days: Group 1 received 0.9% saline and group 2 received 5 mg/kg Compound X. The following week mice received intravenous injections for 4 consecutive days. The next two weeks mice received subcutaneous injections 3 times per week and the last week of treatment was given intravenously 3 times per week.
Nonfasting blood glucose levels were measured weekly from tail bleeds with a handheld glucometer. Animal body weights were taken throughout the course of the study.
At the end of experiment, serum from blood was obtained from the retro-orbital sinus after an overnight fast.

[5] = 250 ug/kg s.c. 5 consecutive days, day 7
[6] = 250 ug/kg s.c. 5 consecutive days, day 7, individual dishes
[7] = 250 ug/kg/day for 5 days, day 7
[8] = DBA mice, multiple s.c. 250 ug/kg

Sequence: FPHFDLSHGSAQV [Compound X, tridecapeptide that acts on stem cells]
- Wound healing rate, Average [1]: 5.14%
- Wound healing rate ([1]; individual mice, 5 mg/kg): 3.89% and 4.69% and 2.42% and 8.09% and 6.62%
- glucose level in blood [2]: decreased glucose level
- CFU-GEMM AVG [3, 5]: 11.4 colonies/100,000 MNCs
- CFU-GEMM Average [3, 5]: 79.8 Colonies/ml of Peripheral Blood
- CFU-GM AVG [3, 5]: 12.4 colonies/100,000 MNCs
- CFU-GM Average [3, 5]: 86.8 Colonies/ml of Peripheral Blood
- CFU-GEMM Colony # [3, 6]: 8 colonies/100,000 MNCs (2×) and 13 colonies/100,000 MNCs and 12 colonies/100,000 MNCs and 16 colonies/100,000 MNCs
- CFU-GM Colony # [3, 6]: 13 colonies/100,000 MNCs (2×) and 14 colonies/100,000 MNCs (2×) and 8 colonies/100,000 MNCs
- number of circulating CFU-GM [3, 7]: did not change
- total CFU-GEMM number in circulation vs naïve or vehicle mice [3, 7]: 3 times higher
- increase in CFU-GEMM number per ml of blood vs saline control group [3, 8]: 3.3 fold
- increase in CFU-GEMM number per ml of blood vs untreated control group [3, 8]: 3.8 fold
- CFU-GEMM numbers, MEAN (HSC and HPC; Day 4): 2.4 per 100000 mononuclear cells
- CFU-GM numbers, MEAN (HSC and HPC; Day 4): 9.6 per 100000 mononuclear cells
- CFU-GEMM numbers (HSC and HPC; Day 4): 3 per 100000 mononuclear cells (2×) and 0 per 100000 mononuclear cells and 4 per 100000 mononuclear cells and 2 per 100000 mononuclear cells
- CFU-GM numbers (HSC and HPC; Day 4): 7 per 100000 mononuclear cells and 6 per 100000 mononuclear cells and 13 per 100000 mononuclear cells and 11 per 100000 mononuclear cells (2×)
- CFU-GEMM numbers, MEAN (HSC and HPC; Day 8): 0.6 per 100000 mononuclear cells
- CFU-GM numbers, MEAN (HSC and HPC; Day 8): 0.6 per 100000 mononuclear cells
- CFU-GEMM numbers (HSC and HPC; Day 8): 1 per 100000 mononuclear cells (3×) and 0 per 100000 mononuclear cells (2×)
- CFU-GM numbers (HSC and HPC; Day 8): 1 per 100000 mononuclear cells (3×) and 0 per 100000 mononuclear cells (2×)
- number of CFU-GEMM or CFU-GM (HSC and HPC; 5 μg/mouse s.c. daily for 4 days, day 8): no difference found
- Fold increase in number of CFU-GM (HSC and HPC; Day 4): 1.9 Fold
- Fold increase in number of CFU-Mix (CFU-GEMM) (HSC and HPC; Day 4, 1 hr after the last injection): 1.7 Fold
- Fold increase in number of CFU-GM (HSC and HPC; Day 8): 0 Fold
- Fold increase in number of CFU-Mix (CFU-GEMM) (HSC and HPC; Day 8): 0 Fold
- Glucose level in peripheral blood (nonfasting) ([4]; Week 1): 160 mg/dL and 121 mg/dL and 122 mg/dL and 235 mg/dL and 117 mg/dL and 178 mg/dL and 248 mg/dL and 119 mg/dL and 181 mg/dL and 194 mg/dL
- Glucose level in peripheral blood (nonfasting) ([4]; Week 2): 481 mg/dL and 377 mg/dL and 177 mg/dL and 472 mg/dL and 273 mg/dL and 452 mg/dL and 500 mg/dL and 189 mg/dL and 502 mg/dL and 430 mg/dL
- Glucose level in peripheral blood (nonfasting) ([4]; Week 3): 541 mg/dL (2×) and 447 mg/dL and 271 mg/dL and HI (High/Hi = ≧600 mg/dL, the maximum possible glucometer reading) and 546 mg/dL and 496 mg/dL and 474 mg/dL and 267 mg/dL and 463 mg/dL
- Glucose level in peripheral blood (nonfasting) ([4]; Week 4): 398 mg/dL and 416 mg/dL and 206 mg/dL and 599 mg/dL and 440 mg/dL and 458 mg/dL and 591 mg/dL and 257 mg/dL and HI (High/Hi = ≧600 mg/dL, the maximum possible glucometer reading) and 549 mg/dL
- Glucose level in peripheral blood (nonfasting) ([4]; Week 5): 481 mg/dL and 443 mg/dL and 256 mg/dL and 527 mg/dL and 525 mg/dL and 582 mg/dL and 588 mg/dL and 467 mg/dL and HI (High/Hi = ≧600 mg/dL, the maximum possible glucometer reading) (2×)
- Glucose level in peripheral blood (nonfasting) ([4]; Week 6): 400 mg/dL and 541 mg/dL and 265 mg/dL and 537 mg/dL and 576 mg/dL and HI (High/Hi = ≧600 mg/dL, the maximum possible glucometer reading) (4×) and 457 mg/dL
- Glucose level in peripheral blood, group mean ([4]; Week 1): 168 ± 15 mg/dL
- Glucose level in peripheral blood, group mean ([4]; Week 2): 385 ± 40 mg/dL
- Glucose level in peripheral blood, group mean ([4]; Week 3): 465 ± 36 mg/dL
- Glucose level in peripheral blood, group mean ([4]; Week 4): 451 ± 44 mg/dL
- Glucose level in peripheral blood, group mean ([4]; Week 5): 506 ± 33 mg/dL
- Glucose level in peripheral blood, group mean ([4]; Week 6): 517 ± 35 mg/dL
- nonfasting glucose level compared to Saline control ([4]; at all timepoints): decreased glucose level
- mice with lower than 200 mg/dL fasting serum glucose ([4]; end of the 5-week study): 2 mice
- mice with overnight fasting serum glucose <300 mg/dL ([4]; end of the 5-week study, vehicle 3/10): 7/10
